In patent US20240344241A1, “PROTEINACEOUS MOLECULES AND USES THEREFOR” (THE UNIVERSITY OF QUEENSLAND, priority 2021, published 2024):
Bridge positions count the residues as written; N and C are the ends. Peptide text beside a SMILES is read from it.

How the values were obtained:
Human β-FXIIa = target: T1, Human β-FXIIa (Homo sapiens, UniProt P00748); assay: FXIIa competitive inhibition assay, fluorescent substrate Boc-QGR-MCA; type: biochemical; conditions: 0.5 nM FXIIa, 50 μM Boc-QGR-MCA; read-out: Ki for FXIIa, fluorescent substrate
T1 construct: Human β-FXIIa was obtained from Molecular Innovations, together with human FXa, human FXIa, human α-thrombin, and human plasma kallikrein; purchased Molecular Innovations; host or cells: purified from human plasma
T1 sequence (P00748 373-615 limits assumed, other chains not shown): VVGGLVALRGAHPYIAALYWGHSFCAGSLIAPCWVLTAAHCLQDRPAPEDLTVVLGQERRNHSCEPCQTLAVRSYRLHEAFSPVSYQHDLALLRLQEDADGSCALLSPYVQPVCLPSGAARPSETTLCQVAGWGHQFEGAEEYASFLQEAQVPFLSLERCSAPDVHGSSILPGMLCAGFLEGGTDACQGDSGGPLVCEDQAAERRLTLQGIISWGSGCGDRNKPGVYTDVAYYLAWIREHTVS
Summary of the method: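 Human β-FXIIa (10 nM) preincubated to equilibrium with serially diluted inhibitors at room temperature in Tris pH 8.0 with NaCl, CaCl2 and Triton X-100. Activity followed with 100 μM Ac-QRFR-pNA (KM 162 μM) at 405 nm, or for later variants 0.5 nM enzyme with 50 μM Boc-QGR-MCA (KM 187 μM) by fluorescence. Ki from Morrison fits.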

human whole blood = assay: Activated clotting time (ACT) in human whole blood
Protocol: (§1) The anticoagulant activity of cyclic MCoFx7 was determined in human whole blood using two assays: activated clotting time (ACT) and rotational thromboelastometry (ROTEM). In ACT assays, the clotting time (y-axis) was increased in a dose-dependent manner from the control (124 s), reaching 223 s with 20 μM MCoFx7. […] Anticoagulant activity was verified by thromboelastometry (TEM) that was measured after activation of the intrinsic pathway (INTEM) (refer to FIG. 16). […] By comparison, a single concentration of cyclic [A25P]MCoFx7 (10 μM) produced a clotting time of 500 s, similar to cyclic MCoFx7 at 10 μM (469 s).
(§2) Activated clotting time (ACT) was measured in fresh whole blood using celite tubes with the Hemochron 401 coagulation analyzer (Soma Technology, Bloomfield, CT, USA). Whole blood clot formation was recorded by ROTEM® Thromboelastometry (Haemoview Diagnostics, Brisbane, Australia) using INTEM (contact factor-initiated coagulation) and HEPTEM (contact factor-initiated coagulation with heparinase) activating reagents according to the manufacturer's instructions.

[1] = system: human whole blood, intrinsic pathway (INTEM); assay: Rotational thromboelastometry INTEM in human whole blood
Protocol: as §1, §2

human blood [2] = assay: ACT assay of blood samples from the ex vivo ECMO model; conditions: ECMO circuit, single dose 20 μM
Protocol: (§3) The duration of effect for each treatment was also monitored by taking blood samples from the circuit over time and performing clotting assays (refer to FIG. 18). In ACT assays, a clotting time of more than 200 s was maintained for cyclic MCoFx7 over the course of the experiment (>300 s from 0.5 h-6 h).
(§4) Ex vivo ECMO circuits (Permanent Life Support [PLS] System, Maquet C P, Rastatt, Germany) consisted of a Quadrox D Oxygenator and ROTAFLOW centrifugal pump, both incorporated into a tubing set, with a tip-to-tip BIOLINE (albumin and heparin) coating. Initially, the PLS system was primed with Plasma-Lyte 148 and heated to 37.8° C. […] Inlet and outlet pressures between the membrane oxygenator were monitored using a silicone-based pressure transducer (Omega Engineering, Norwalk, CT, USA) and were recorded as the delta oxygenator pressure (P). […]
as §2

human blood [3] = assay: INTEM assay of blood samples from the ex vivo ECMO model; conditions: ECMO circuit, single dose 20 μM
Protocol: as §3, §4, §2

human blood [4] = assay: HEPTEM assay of blood samples from the ex vivo ECMO model; conditions: ECMO circuit, heparinase added
Protocol: as §3, §4, §2

CC[C@H](C)[C@@H]1NC(=O)CNC(=O)CNC(=O)[C@H](CC(=O)O)NC(=O)[C@H](CO)NC(=O)CNC(=O)[C@H](CO)NC(=O)CNC(=O)[C@@H]2CSSC[C@@H]3NC(=O)[C@H](CC(=O)O)NC(=O)[C@H](CO)NC(=O)[C@H](CC(=O)O)NC(=O)[C@H](CCCNC(=N)N)NC(=O)[C@H](CCCNC(=N)N)NC(=O)[C@@H]4CSSC[C@H](NC(=O)[C@H]([C@@H](C)CC)NC(=O)[C@H](CSSC[C@H](NC1=O)C(=O)N1CCC[C@H]1C(=O)N[C@@H](CCCNC(=N)N)C(=O)N[C@@H]([C@@H](C)CC)C(=O)NCC(=O)N[C@@H](CCCNC(=N)N)C(=O)N[C@@H](CC(C)C)C(=O)N4)NC(=O)[C@H](C)NC(=O)CNC(=O)[C@@H]1CCCN1C3=O)C(=O)N[C@@H](CCCNC(=N)N)C(=O)N[C@@H](C)C(=O)N[C@@H]([C@@H](C)O)C(=O)N[C@@H](CCCNC(=N)N)C(=O)N[C@@H](Cc1ccccc1)C(=O)N2 [Cyclic MCoFx7] (cyclo(ACICRATRFCGSGSDGGICPRIGRLCRRDSDCPG); disulfide 2-19, 4-26, 10-32)
Ki (Human β-FXIIa): 64 pM | ACT clotting time versus therapeutic range (180-220 s) (human whole blood; 10 μM or 20 μM): within the therapeutic range | ACT clotting time (human whole blood; 20 μM, human whole blood): 223 s | INTEM clotting time ([1]; 10 μM): 469 s | INTEM clotting time ([1]; 20 μM): 521 s | ACT clotting time (human blood [2]; from 0.5 h-6 h): > 300 s | ACT clotting time maintained over the course of the experiment (human blood [2]): more than 200 s | INTEM anticoagulant activity, duration (human blood [3]): anticoagulant activity was maintained for 6 h | HEPTEM anticoagulant activity (human blood [4]): independent of heparin
